Measured values published in patent US20260137707A1, “METHODS OF MODULATING ATXN2 EXPRESSION” (University of Utah Research Foundation, priority 2022, published 2026).
pIC50: −log10 of the molar value. Counter-ions that a name gives are not always drawn. Like-named read-outs stand apart in the source and are kept apart here.

Legend:
in vitro = settings: human
Description: (§1) Compounds were plated at 2× concentrations in 25 μl in 384 well plates with each compound dose plated in triplicate. An equal volume of S2, H2, or SC cells (24,000 cells/well) suspended in phenol-red free Dulbecco's Modified Eagle Medium (DMEM) with 10% fetal bovine serum and 1× penicillin/streptomycin were added. Cells were grown 24 hrs then assayed first by using the CellTiter-Fluor reagent (20 μl) followed by the addition of Bright-Glo ([…]) luciferase assay, using a multimode plate reader (Beckman DT880). Values were reported as the mean±standard deviation (SD) with n=3. IC50s were determined by the Hill coefficient method using an online tool (https://www.aatbio.com/tools/ic50-calculator).
(§2) These 46 compounds were retested at 12 doses and a zero-compound dose, in multiplexed assays in 96-well plates using CellTiter-Fluor to determine cell viability, then Bright-Glo to determine luciferase expression. The values for H2 and S2 were used as replicates to calculate IC50s and to assess cell viability.
(§3) For CMV-luc and viability charts, the fitted lines are second-order polynomials. Means and SD are shown.

ATXN2-luc [1] = settings: H2 cells
ATXN2-luc [2] = settings: average ATXN2-luc response of H2 and S1 cells
ATXN2-luc [3] = test: cells; settings: for activity at 1 µM: read-out: Luc at 1 μm; for activity at 10 µM: read-out: Luc at 10 μm
CMV-luc = test: Secondary assays, Bright-Glo luciferase in SC cells; type: cell-based; settings: minimum CMV-luc luciferase in SC cells over 12 doses
Description: as §1, §3

ATXN2-luc [4] = test: Secondary assays, Bright-Glo luciferase in H2 and S2 cells; type: cell-based
Description: as §1, §2, §3

[5] = Table 1, 24 hrs, single 10 μM dose, Z-score of luciferase

Compound | SD from Mean (ATXN2-luc [1]; [5]) | SD from Mean (ATXN2-luc [1]; Table 5S, pilot screen, 10 μM) | Luc at 1 μm (ATXN2-luc [2]) | Luc at 10 μm (ATXN2-luc [2]) | activity at 1 µM (ATXN2-luc [3]) | activity at 10 µM (ATXN2-luc [3]) | also measured
O=C(NC1CCNCC1)c1n[nH]cc1NC(=O)c1c(Cl)cccc1Cl [AT7519] |  |  |  |  |  |  | viability at 24 h (in vitro): 50.3%
C/C1=C2/[N-][C@H]([C@H](CC(N)=O)[C@@]2(C)CCC(=O)NC[C@@H](C)OP(=O)([O-])O[C@H]2[C@@H](O)[C@@H](n3cnc4cc(C)c(C)cc43)O[C@@H]2CO)[C@]2(C)N=C(/C(C)=C3N=C(/C=C4N=C1[C@@H](CCC(N)=O)C\4(C)C)[C@@H](CCC(N)=O)[C@]\3(C)CC(N)=O)[C@@H](CCC(N)=O)[C@]2(C)CC(N)=O.[Co] [COBALAMINE] | −5.111 SD | −5.111 SD | 126 | 109 |  |  | 
CC[C@H]1CN2CCc3cc(OC)c(OC)cc3[C@@H]2C[C@@H]1C[C@H]1NCCc2cc(O)c(OC)cc21.Cl.Cl.O.O.O.O.O.O.O [Cephaeline dihydrochloride heptahydrate] | −4.055 SD | −4.055 SD | 16 | 17 |  |  | 
CCCCCCCCCOc1ccc2[nH]cc(CCN)c2c1 [ChemBridge ID# 5629242] | −3.609 SD |  | 110 | 58 |  |  | 
C[C@H]1O[C@@H](O[C@H]2[C@@H](O)C[C@H](O[C@H]3[C@@H](O)C[C@H](O[C@H]4CC[C@@]5(C)[C@H](CC[C@@H]6[C@@H]5CC[C@]5(C)[C@@H](C7=CC(=O)OC7)CC[C@]65O)C4)O[C@@H]3C)O[C@@H]2C)C[C@H](O)[C@@H]1O [DIGITOXIN] | −4.100 SD | −4.100 SD |  |  | 27% | 19% | 
C[C@]12CC[C@H](O)C[C@H]1CC[C@@H]1[C@@H]2CC[C@]2(C)[C@@H](C3=CC(=O)OC3)CC[C@]12O [Digitoxigenin] | −3.629 SD | −3.629 SD |  |  | 38% | 13% | 
C[C@]12CC[C@H](O)C[C@H]1CC[C@@H]1[C@@H]2C[C@@H](O)[C@]2(C)[C@@H](C3=CC(=O)OC3)CC[C@]12O [Digoxigenin] | −3.264 SD | −3.264 SD |  |  | 90% | 22% | 
CO[C@H]1[C@@H](O)[C@@H](C)O[C@@H](O[C@H]2CC[C@]3(C)[C@H]4CC[C@]5(C)[C@@H](C6=CC(=O)OC6)CC[C@]5(O)[C@@H]4CC[C@]3(O)C2)[C@@H]1O [EMICYMARIN] | −3.080 SD | −3.080 SD | 115 | 31 |  |  | 
CC[C@H]1CN2CCc3cc(OC)c(OC)cc3[C@@H]2C[C@@H]1C[C@H]1NCCc2cc(OC)c(OC)cc21 [Emetine dihydrochloride] | −4.840 SD | −4.840 SD |  |  | 18% | 19% | 
CC(=O)O[C@H]1CC[C@@]2(C)[C@H](CC[C@@H]3[C@@H]2CC[C@]2(C)[C@@H](C4=CC(=O)OC4)[C@@H](OC(C)=O)C[C@]32O)C1 [GITOXIGENIN DIACETATE] | −4.261 SD | −4.261 SD |  |  | 27% | 21% | 
C[C@H]1O[C@@H](O[C@H]2[C@@H](O)C[C@H](O[C@H]3[C@@H](O)C[C@H](O[C@H]4CC[C@@]5(C)[C@H](CC[C@@H]6[C@@H]5CC[C@]5(C)[C@@H](C7=CC(=O)OC7)[C@@H](O)C[C@]65O)C4)O[C@@H]3C)O[C@@H]2C)C[C@H](O)[C@@H]1O [GITOXIN] | −4.086 SD | −4.086 SD |  |  | 21% | 12% | 
CS(=O)(=O)Nc1ccc(Cc2noc(-c3ccc4[nH]cc(CCN)c4c3)n2)cc1 [L-694 247] | −3.156 SD | −3.156 SD | 110 | 6 |  |  | 
CC(=O)O[C@H]1C[C@H](O[C@H]2[C@@H](O)C[C@H](O[C@H]3[C@@H](O)C[C@H](O[C@H]4CC[C@@]5(C)[C@H](CC[C@@H]6[C@@H]5C[C@@H](O)[C@]5(C)[C@@H](C7=CC(=O)OC7)CC[C@]65O)C4)O[C@@H]3C)O[C@@H]2C)O[C@H](C)[C@H]1O[C@@H]1O[C@H](CO)[C@@H](O)[C@H](O)[C@H]1O [LANATOSIDE C] | −4.323 SD | −4.323 SD | 39 | 15 |  |  | SD from Mean (ATXN2-luc [1]; Table 1, 24 hrs, single 10 μM dose, Z-score of luciferase, listed as Lanatoside C): −3.629 SD; SD from Mean (ATXN2-luc [1]; Table 5S, pilot screen, 10 μM, listed as Lanatoside C): −3.629 SD
COc1ccc(CN2CCN(C(c3ccc(F)cc3)c3ccc(F)cc3)CC2)c(OC)c1OC [LOMERIZINE DiHCl] | −2.782 SD | −2.782 SD | 102 |  |  | 55% | 
CC1=CC(=O)c2ccccc2C1=O [Menadione] | −3.434 SD |  |  |  |  | 35% | 
CO[C@H]1[C@H](O)[C@H](O[C@H]2CC[C@@]3(C)[C@H](CC[C@@H]4[C@@H]3CC[C@]3(C)[C@@H](C5=CC(=O)OC5)CC[C@]43O)C2)O[C@@H](C)[C@@H]1O [NERIIFOLIN] | −3.045 SD |  |  |  | 17% | 17% | 
COC(=O)C1=C(C)NC(C)=C(C(=O)OCCN(C)Cc2ccccc2)C1c1cccc([N+](=O)[O-])c1 (stereo not shown) [NICARDIPINE] | −2.782 SD | −2.782 SD | 112 |  |  | 61% | 

Compound | SD from Mean (ATXN2-luc [1]; [5]) | SD from Mean (ATXN2-luc [1]; Table 5S, pilot screen, 10 μM) | Luc at 1 μm (ATXN2-luc [2]) | Luc at 10 μm (ATXN2-luc [2]) | activity at 1 µM (ATXN2-luc [3]) | activity at 10 µM (ATXN2-luc [3]) | also measured
CO[C@H]1C[C@H](O[C@H]2CC[C@]3(C)[C@H]4CC[C@]5(C)[C@@H](C6=CC(=O)OC6)CC[C@]5(O)[C@@H]4CC[C@]3(O)C2)O[C@H](C)[C@H]1O [PERIPLOCYMARIN] | −2.759 SD |  |  |  | 75% | 17% | 
CO[C@H]1[C@H](O)[C@H](O[C@H]2CC[C@@]3(C=O)[C@H](CC[C@@H]4[C@@H]3CC[C@]3(C)[C@@H](C5=CC(=O)OC5)CC[C@]43O)C2)O[C@@H](C)[C@@H]1O [PERUVOSIDE] | −4.038 SD | −4.038 SD |  |  | 15% | 12% | 
CC(=O)Oc1cccc(O)c1 [RESORCINOL MONOACETATE] | −6.242 SD | −6.242 SD |  |  | 120% | 5% | 
C[C@]12CC[C@H](O)C[C@H]1CC[C@@H]1[C@@H]2[C@H](O)C[C@]2(C)[C@@H](C3=CC(=O)OC3)CC[C@]12O [SARMENTOGENIN] | −3.539 SD |  |  |  | 53% | 24% | 
COc1ccc(CCCOC(Cn2ccnc2)c2ccc(OC)cc2)cc1 (stereo not shown) [SKF-96365] | −2.721 SD | −2.721 SD |  |  | 104% | 57% | 
C[C@]12CC[C@H]3[C@@H](CC[C@]4(O)C[C@@H](O)CC[C@]34C=O)[C@@]1(O)CC[C@@H]2C1=CC(=O)OC1 [STROPHANTHIDIN] |  | −4.451 SD |  |  | 16% | 15% | 
CC(C)c1cc(/C=C(\C#N)C(=O)NCCCc2ccccc2)cc(C(C)C)c1O [SU1498] | −4.885 SD | −4.885 SD | 22 | 15 |  |  | 
C[n+]1cc2c3c(ccc2c2ccc4cc5c(cc4c21)OCO5)OCO3 [Sanguinarine] | −2.689 SD | −2.689 SD | 127 |  |  | 160% | 
[H]/N=C(/NCCCCC)N/N=C/c1c[nH]c2ccc(OC)cc12 [TEGASEROD MALEATE] | −3.606 SD |  |  |  |  | 8% | 
CCN(CC)CCCCCCCCOC(=O)c1cc(OC)c(OC)c(OC)c1 [TMB-8] | −5.740 SD | −5.740 SD | 66 | 53 |  |  | 
CN1CCN(CCCN2c3ccccc3Sc3ccc(C(F)(F)F)cc32)CC1 [TRIFLUOPERAZINE HYDROCHLORIDE] | −5.856 SD | −5.856 SD |  |  |  | 2% | 
Nc1ccc(-c2ccc3ncc4ccc(=O)n(-c5cccc(C(F)(F)F)c5)c4c3c2)cn1 [Torin2] |  |  |  |  |  |  | min SC luc (CMV-luc): 128.4%; pIC50 (ATXN2-luc [4]; ATXN2-luc, Bright-Glo, H2 and S2 values used as replicates, 12 doses, 96-well plates, read-out: Mean IC50): 6.59; min ATXN2-luc (ATXN2-luc [4]; minimum ATXN2-luc luciferase over 12 doses, H2 and S2 cells): 25.42%
COc1cccc(C2(O)CCCCC2CN(C)C)c1 (stereo not shown) [Tramadol] | −3.415 SD |  |  |  |  | 134% | 
O=c1[nH]c(=O)n([C@H]2C[C@H](O)[C@@H](CO)O2)cc1C(F)(F)F [Trifluridine] | −5.158 SD | −5.158 SD |  |  |  | 71% | 
C1CCC(N=C(NC23CC4CC(CC(C4)C2)C3)N2CCOCC2)CC1.Cl [U-37883A] | −4.965 SD | −4.965 SD | 94 | 17 |  |  | 
Cyanocobalamin | −2.681 SD | −2.681 SD | 110 | 140 |  |  | 
STROPH[…] LACTONE ACETATE | −3.855 SD | −3.855 SD | 37 | 20 |  |  | 
